From publication PMC9238401, “Peptide Conjugates Derived from flg15, Pep13, and PIP1 That Are Active against Plant-Pathogenic Bacteria and Trigger Plant Defense Responses” (Applied and Environmental Microbiology, 2022)

What was measured:
[1] = test system: Erwinia amylovora PMV6076; assay: In vitro growth inhibition (MIC); assay type: cell-based; settings: TSB, 25°C, 48 h, OD 600 nm (Bioscreen C), three replicates, experiment repeated twice; MIC = lowest concentration with no growth, given as range
Procedure, shortened: (§1)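 Bacterial suspensions (10^8 CFU mL^−1, from 24 h plates at 25°C) mixed with peptide dilutions in TSB, triplicate wells. OD600 read hourly over 48 h at 25°C with shaking. MIC = lowest concentration with no growth at end of run.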

[2] = test system: Pseudomonas syringae pv. actinidiae Psa3700.1.1; assay: In vitro growth inhibition (MIC); assay type: cell-based; settings: TSB, 25°C, 48 h, OD 600 nm (Bioscreen C), three replicates, experiment repeated twice; MIC given as range
Procedure, shortened: as §1

[3] = test system: Pseudomonas syringae pv. syringae EPS94; assay: In vitro growth inhibition (MIC); assay type: cell-based; settings: TSB, 25°C, 48 h, OD 600 nm (Bioscreen C), three replicates, experiment repeated twice; MIC given as range
Procedure, shortened: as §1

[4] = test system: Xanthomonas arboricola pv. pruni CFBP5563; assay: In vitro growth inhibition (MIC); assay type: cell-based; settings: TSB, 25°C, 48 h, OD 600 nm (Bioscreen C), three replicates, experiment repeated twice; MIC given as range
Procedure, shortened: as §1

[5] = test system: Xanthomonas fragariae Xf349-9A; assay: In vitro growth inhibition (MIC); assay type: cell-based; settings: TSB, 25°C, 48 h, OD 600 nm (Bioscreen C), three replicates, experiment repeated twice; MIC given as range
Procedure, shortened: as §1

[6] = test system: Xanthomonas axonopodis pv. vesicatoria 2133-2; settings: TSB, 25°C, 48 h, OD 600 nm (Bioscreen C), three replicates, experiment repeated twice; MIC given as range
Procedure, shortened: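 Bacteria grown 24 h (48 h for Xanthomonas axonopodis, X. fragariae) at 25°C, suspended at 10^8 CFU mL^−1, mixed with peptide dilutions in TSB.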

[7] = test system: horse erythrocytes; settings: TRIS buffer pH 7.2, 1 h, 37°C, absorbance 540 nm, relative to melittin 100 μM, ± confidence interval (α = 0.05)
Procedure, shortened: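 Horse erythrocytes washed in 10 mM Tris, 150 mM NaCl, pH 7.2 were mixed 1:1 with compound solutions at 750, 500, 300 and 100 μM and shaken 1 h at 37°C. Hemoglobin release read at 540 nm in supernatant; % hemolysis relative to buffer and melittin control.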

[8] = test system: tobacco leaves; assay: Effect of peptide infiltration on tobacco leaves (phytotoxicity); assay type: in vivo
Procedure, shortened: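 Peptide solutions at 50, 150 and 250 μM were infiltrated into the mesophyll of fully expanded tobacco leaves, with at least three leaves per peptide and dose on different plants. Water and equimolar melittin served as controls. Lesion diameter was measured 48 h after infiltration.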

[9] = HPLC retention time as indicator of relative hydrophobicity; assay type: physicochemical; settings: chromatographic, Kromasil 100 C18 (4.6 mm × 40 mm, 3 μm), linear gradient 2 to 100% B over 12 min, 1 mL/min; A 0.1% aqueous TFA, B 0.1% TFA in CH3CN; used as indicator of relative hydrophobicity
Description: The parameters related to the structure of the peptide conjugates (sequence, charge, hydrophobic ratio [HR], and HPLC retention time), as well as their physicochemical properties (grand average hydropathicity [GRAVY] and hydrophobic moment [<μH>]) obtained from the online programs ProtParam (Expasy server) and HeliQuest are included in Table 1.
Peptides were analyzed under standard analytical HPLC conditions. Method A: peptides were analyzed with a Dionex liquid chromatography instrument composed of a UV/Vis Dionex UVD170U detector, a P680 Dionex pump, an ASI-100 Dionex automatic injector, and Chromeleon 6.60 software. Detection was performed at a wavelength of 220 nm. Solvent A was 0.1% aqueous trifluoroacetic acid (TFA), and solvent B was 0.1% TFA in CH3CN. Analyses were carried out with a Kromasil 100 C18 (4.6 mm × 40 mm, 3 μm) column with a linear gradient of 2 to 100% B over 7 min at a flow rate of 1 mL/min. Method B: peptides were analyzed with a 1260 Infinity II liquid chromatography instrument (Agilent Technologies) composed of a diode array detector HS, a quaternary pump VL, a 1260 vial sampler, and OpenLab CDS ChemStation software. Analyses were carried out with a Kromasil 100 C18 (4.6 mm × 40 mm, 3 μm) column with a linear gradient of 2 to 100% B over 12 min at a flow rate of 1 mL/min.

[10] = 100 μL infiltrated into mesophyll, lesion diameter 48 h after infiltration, at least three leaves, ± confidence interval (α = 0.05)

Substance	MIC, Ea [1]	MIC, Psa [2]	MIC, Pss [3]	MIC, Xap [4]	MIC, Xf [5]	MIC, Xav [6]	Percent hemolysis at 50 μM [7]	Percent hemolysis at 150 μM [7]	Percent hemolysis at 250 μM [7]	Percent hemolysis at 375 μM [7]	Size of the lesions in infiltrated tobacco leaves at 50 μM [8, 10]	Size of the lesions in infiltrated tobacco leaves at 150 μM [8, 10]	Size of the lesions in infiltrated tobacco leaves at 250 μM [8, 10]	tR (min), HPLC retention time (method B) [9]	Size of the lesions in infiltrated tobacco leaves at 50 μM ([8]; in vivo)	Size of the lesions in infiltrated tobacco leaves at 150 μM ([8]; in vivo)	Size of the lesions in infiltrated tobacco leaves at 250 μM ([8]; in vivo)
Ac-KKLfKKILKK(COC3H7)L-RINSAKDDAAGLQIA-OH [BP475-flg15, peptide conjugate, lipopeptide BP475 at N-terminus, flg15 at C-terminus]	12.5 to 25 µM	3.1 to 6.2 µM	6.2 to 12.5 µM	1.6 to 3.1 µM	25 to 50 µM	3.1 to 6.2 µM	1 ± 1.0%	0 ± 0.2%	1 ± 0.3%	1 ± 0.3%	0.43 ± 0.13 cm	1.20 ± 0.23 cm	1.23 ± 0.28 cm	6.03 min	–	–	–
H-KKVVFWVKFKFKLFKKILKVL-NH2 [KSLW-BP13]	25 to 50 µM	1.6 to 3.1 µM	25 to 50 µM	1.6 to 3.1 µM	1.6 to 3.1 µM	3.1 to 6.2 µM	62 ± 8.2%	65 ± 5.9%	77 ± 12.9%	82 ± 10.4%	0.52 ± 0.13 cm	0.88 ± 0.15 cm	1.07 ± 0.34 cm	6.26 min	–	–	–
Ac-KKLFKKIK(COC3H7)KYL-RINSAKDDAAGLQIA-OH [BP387-flg15, peptide conjugate, lipopeptide BP387 at N-terminus, flg15 at C-terminus]	25 to 50 µM	6.2 to 12.5 µM	3.1 to 6.2 µM	1.6 to 3.1 µM	6.2 to 12.5 µM	3.1 to 6.2 µM	3 ± 0.3%	5 ± 0.9%	7 ± 0.2%	9 ± 2.5%	0.23 ± 0.24 cm	0.33 ± 0.35 cm	0.93 ± 0.40 cm	5.84 min	–	–	–
H-RINSAKDDAAGLQIAKKLFKKILKKL-NH2 [flg15-BP16]	3.1 to 6.2 µM	3.1 to 6.2 µM	6.2 to 12.5 µM	3.1 to 6.2 µM	1.6 to 3.1 µM	1.6 to 3.1 µM	2 ± 0.1%	3 ± 0.2%	4 ± 0.9%	5 ± 0.3%	0.20 ± 0.12 cm	0.49 ± 0.13 cm	0.42 ± 0.11 cm	5.89 min	–	–	–
H-YGIHTHKKVVFWVKFK-NH2 [PIP1-KSLW]	12.5 to 25 µM	6.2 to 12.5 µM	6.2 to 12.5 µM	3.1 to 6.2 µM	6.2 to 12.5 µM	3.1 to 6.2 µM	7 ± 0.8%	7 ± 1.1%	6 ± 0.4%	6 ± 0.4%	–	–	–	4.81 min	0 ± 0 cm	0.47 ± 0.24 cm	0.70 ± 0.11 cm
H-FKLFKKILKVLKKVVFWVKFK-NH2 [BP13-KSLW]	> 50 µM	6.2 to 12.5 µM	12.5 to 25 µM	1.6 to 3.1 µM	1.6 to 3.1 µM	1.6 to 3.1 µM	80 ± 11.2%	90 ± 7.3%	100 ± 8.4%	99 ± 8.4%	0.56 ± 0.23 cm	1.00 ± 0.25 cm	0.92 ± 0.36 cm	7.02 min	–	–	–
KKVVFWVKFK-RINSAKDDAAGLQIA-OH [KSLW-flg15, peptide conjugate, KSL-W at N-terminus, flg15 at C-terminus]	> 50 µM	> 50 µM	> 50 µM	> 50 µM	12.5 to 25 µM	6.2 to 12.5 µM	4 ± 1.9%	7 ± 3.4%	8 ± 0.9%	8 ± 2.7%	0 ± 0 cm	0.13 ± 0.09 cm	0.26 ± 0.05 cm	4.75 min	–	–	–
KKLFKKILKYL-RINSAKDDAAGLQIA-OH [BP100-flg15, peptide conjugate, BP100 at N-terminus, flg15 at C-terminus]	6.2 to 12.5 µM	1.6 to 3.1 µM	3.1 to 6.2 µM	1.6 to 3.1 µM	6.2 to 12.5 µM	3.1 to 6.2 µM	1 ± 0.9%	1 ± 0.8%	3 ± 0.0%	6 ± 1.6%	0.10 ± 0.12 cm	0.28 ± 0.14 cm	0.36 ± 0.13 cm	4.96 min	–	–	–
